# From patent publication US9102671B2, “Compounds and compositions as TRK inhibitors” (Novartis AG, priority 2011, dated 2015)
# pIC50: −log10 of the molar value.
# Legend:
# [1] = tested on: parental (untransformed) Ba/F3 cells; experiment: Ba/F3 cell proliferation, BAF3/WT (parental, IL3); type: cell-based, murine; details: Mus musculus, inhibition of proliferation of parental cells with IL3, 48 hours, Bright-Glo luminescence
# Method: (§1) Test compounds were dissolved in DMSO (10 mM) and transferred into 1.4 mL flat bottom or V-shaped Matrix tubes carrying a unique 2D matrix chip by individual compound hubs. The numbers of these chips were distinctively linked to the individual compound identification numbers. The stock solutions were stored at −20° C. if not used immediately. For the test procedure the vials were defrosted and identified by a scanner whereby a working sheet is generated that guides the subsequent working steps.
# (§2) Compound dilutions were made in 384 well plates. This format enabled the assay of maximally 28 individual test compounds at 11 concentrations (single points) including 2 reference compounds. The dilution protocol included the production of pre-dilution plates, master plates and assay plates: • Compound plates: 30 μL of individual compound (10 mM) DMSO solution including reference compound were transferred into columns 1 and 13 of a 384 well plate. 20 μL of DMSO were added to the rest of the wells and the compounds were serially diluted (1:3) by transferring 10 μL from a well in column 1 or 13 to the next well in column 2 or 14 respectively and successively with the help of a Minitrack robot. • Assay plates: Identical assay plates were then prepared by adding 50 nL each of compound dilutions of the compound plates into 384-well “assay plates”. In the following the compounds were mixed with 50 μL of assays components (cells or enzyme) and tested for their inhibitory activity.
# Compounds were tested for their ability to inhibit the proliferation of wt Ba/F3 cells and Ba/F3 cells transformed with constitutively expressed luciferase reporter and BCR-ABL or Tel-FMS or other Tel fusion kinases (EGFR, JAK2, ALK, BMX, FGFR3, FGFR4, FGR2, FLT1, FLT3, IGF1R, INSR, KDR, KIT, LCK, LYN, MEK, MET, PDGFRα, PDGFRβ, RET, RON, ROS, SRC, SYK, TIE and TYRO) or BRafV600E. Parental Ba/F3 cells were maintained in media containing recombinant mouse IL3 and the kinase transformed Ba/F3 cells were maintained in media without IL-3. 7.5 nl of compounds were spotted to each well of 1536-well assay plates by Liquid handling System Echo 555 (Labcyte). 700 cells were then plated into each well of the assay plates in 7 uL culture media per well and compounds were tested at 0.17 nM to 10 uM in 3-fold serial dilutions. The cells were then incubated for 48 hours at 37° C. 3 uL of Bright-Glo® (Promega) was added to each well and the plates were read using ViewLux (PerkinElmer).
# The cell line used is the luciferase expressing Ba/F3 murine hematopoietic progenitor cell line transformed with human Tel-TrkA, Tel-TrkB or Tel-TrkC cDNAs (Ba/F3 EN A/B/C). These cells maintained in RPMI/10% fetal bovine serum (RPMI/FCS) supplemented with penicillin 50 mg/mL, streptomycin 50 mg/mL and L-glutamine 200 mM. Untransformed Ba/F3 cells were similarly maintained with the addition 5 ng/ml of murine recombinant IL3. 50 μl of a Ba/F3 or Ba/F3 EN A/B/C cell suspension were plated in Greiner 384 well microplates (white)) at a density of 2000 cells per well. 50 nl of serially diluted test compound (10-0.0001 mM in DMSO solution) is added to each well. The cells were incubated for 48 hours at 37° C., 5% CO2. 25 μl of Bright Glo® (Promega) luciferase substrate is added to each well. The emited luminiscence is quantified using ViewLux (PerkinElmer). IC50 values were calculated by linear regression analysis of the percentage inhibition of each compound at 11 concentrations. […]
# [2] = target: T1, Ba/F3 cells transformed with human Tel-TrkA (Homo sapiens, UniProt P04629); experiment: Ba/F3 cell proliferation, Ba/F3 Tel-TrkA; type: cell-based; details: inhibition of proliferation, 48 hours, Bright-Glo luminescence; read-out: Ba/F3Tel-TrkA
# T1 construct: expressed in transfected cells; host or cells: luciferase expressing Ba/F3 murine hematopoietic progenitor cell line; the other entry of the earlier key: ETV6 (P41212, Transcription factor ETV6)
# Method: as §1, §2
# The cell line used is the luciferase expressing Ba/F3 murine hematopoietic progenitor cell line transformed with human Tel-TrkA, Tel-TrkB or Tel-TrkC cDNAs (Ba/F3 EN A/B/C). These cells maintained in RPMI/10% fetal bovine serum (RPMI/FCS) supplemented with penicillin 50 mg/mL, streptomycin 50 mg/mL and L-glutamine 200 mM. Untransformed Ba/F3 cells were similarly maintained with the addition 5 ng/ml of murine recombinant IL3. 50 μl of a Ba/F3 or Ba/F3 EN A/B/C cell suspension were plated in Greiner 384 well microplates (white)) at a density of 2000 cells per well. 50 nl of serially diluted test compound (10-0.0001 mM in DMSO solution) is added to each well. The cells were incubated for 48 hours at 37° C., 5% CO2. 25 μl of Bright Glo® (Promega) luciferase substrate is added to each well. The emited luminiscence is quantified using ViewLux (PerkinElmer). IC50 values were calculated by linear regression analysis of the percentage inhibition of each compound at 11 concentrations.
# In certain examples compounds of Formula (I) have IC50 values from 0.1 nM 1 μM. In other examples, compounds of Formula (I) have IC50 values from 0.0001 μM to 0.8 μM. In other examples, compounds of Formula (I) have IC50 values from 0.0001 μM to 0.6 μM. In other examples, compounds of Formula (I) have IC50 values from 0.0001 μM to 0.4 μM. In other examples, compounds of Formula (I) have IC50 values from 0.0001 μM to 0.2 μM. In other examples, compounds of Formula (I) have IC50 values from 0.0001 μM to 0.1 μM. In other examples, compounds of Formula (I) have IC50 values from 0.0001 μM to 0.08 μM. In other examples, compounds of Formula (I) have IC50 values from 0.0001 μM to 0.06 μM. In other examples, compounds of Formula (I) have IC50 values from 0.0001 μM to 0.04 μM. In other examples, compounds of Formula (I) have IC50 values from 0.0001 μM to 0.02 μM. In other examples, compounds of Formula (I) have IC50 values from 0.0001 μM to 0.01 μM. In other examples, compounds of Formula (I) have IC50 values from 0.01 μM to 1 μM.
# [3] = target: T2, Ba/F3 cells co-expressing full length rTrkA and mNGF (Rattus norvegicus, UniProt P35739); experiment: Ba/F3 cell proliferation, BaF3/TRKA-NGF; type: cell-based; details: inhibition of proliferation, 48 hours, Bright-Glo luminescence
# T2 construct: co-expressing full length rTrkA and mNGF; expressed in transfected cells; host or cells: Ba/F3 murine hematopoietic progenitor cells
# T2 sequence (P35739 33-799): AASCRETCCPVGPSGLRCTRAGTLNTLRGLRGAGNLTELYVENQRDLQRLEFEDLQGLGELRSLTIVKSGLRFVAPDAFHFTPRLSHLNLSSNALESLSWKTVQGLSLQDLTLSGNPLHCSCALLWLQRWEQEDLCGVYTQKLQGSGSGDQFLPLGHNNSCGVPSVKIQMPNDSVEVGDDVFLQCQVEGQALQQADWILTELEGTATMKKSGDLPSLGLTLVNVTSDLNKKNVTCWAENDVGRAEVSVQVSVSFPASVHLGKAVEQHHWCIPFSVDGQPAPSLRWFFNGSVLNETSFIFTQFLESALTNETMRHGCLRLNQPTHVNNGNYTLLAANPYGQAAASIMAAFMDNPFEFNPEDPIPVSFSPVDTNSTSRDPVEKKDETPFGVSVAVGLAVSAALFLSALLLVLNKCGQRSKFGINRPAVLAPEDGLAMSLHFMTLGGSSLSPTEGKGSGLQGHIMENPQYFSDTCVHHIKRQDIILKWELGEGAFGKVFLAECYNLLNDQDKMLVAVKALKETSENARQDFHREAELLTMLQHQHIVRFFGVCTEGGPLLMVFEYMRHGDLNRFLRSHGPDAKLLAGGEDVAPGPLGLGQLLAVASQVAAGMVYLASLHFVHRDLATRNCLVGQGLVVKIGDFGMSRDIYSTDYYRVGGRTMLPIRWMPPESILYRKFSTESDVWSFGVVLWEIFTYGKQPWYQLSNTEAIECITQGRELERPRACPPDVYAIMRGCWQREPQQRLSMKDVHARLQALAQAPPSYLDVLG
# T2 sequence (P01139 122-241 partner): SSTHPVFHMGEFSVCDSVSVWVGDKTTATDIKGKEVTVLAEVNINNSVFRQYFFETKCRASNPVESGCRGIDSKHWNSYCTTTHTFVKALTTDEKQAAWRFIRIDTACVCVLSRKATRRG
# T1 sequence (P04629 510-796 limits assumed): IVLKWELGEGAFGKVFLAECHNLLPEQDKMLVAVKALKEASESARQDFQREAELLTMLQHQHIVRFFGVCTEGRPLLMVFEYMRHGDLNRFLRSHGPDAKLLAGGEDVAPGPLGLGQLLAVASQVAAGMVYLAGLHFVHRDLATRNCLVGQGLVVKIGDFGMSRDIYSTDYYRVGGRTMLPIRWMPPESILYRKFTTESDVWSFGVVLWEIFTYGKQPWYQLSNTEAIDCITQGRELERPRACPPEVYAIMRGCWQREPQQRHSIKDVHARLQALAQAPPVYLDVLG
SMILES,pIC50 [2],pIC50 [3],pIC50 [1]
N#Cc1cc(F)cc([C@@H]2C[C@H](F)CN2c2ccn3ncc(C(N)=O)c3c2)c1 [Example X-27],< 5.00,< 5.00,< 5.00
"CCOC(=O)c1cnn2ccc(N3C[C@@H](F)C[C@@H]3c3cccc(F)c3)cc12 [Example X-1, ethyl 5-((2R,4S)-4-fluoro-2-(3-fluorophenyl)pyrrolidin-1-yl)pyrazolo[1,5-a]pyridine-3-carboxylate]",,9.00,5.39
"NC(=O)c1cc(F)cc([C@H]2CC(F)(F)CN2c2ccn3ncc(C(N)=O)c3c2)c1 [Example X-9, (R)-5-(2-(3-carbamoyl-5-fluorophenyl)-4,4-difluoropyrrolidin-1-yl)pyrazolo[1,5-a]pyridine-3-carboxamide]",7.43,7.32,< 5.00
"N#C[C@H]1C[C@H](c2cccc(F)c2)N(c2ccn3ncc(C(N)=O)c3c2)C1 [Example X-25, 5-((2R,4S)-4-cyano-2-(3-fluorophenyl)pyrrolidin-1-yl)pyrazolo[1,5-a]pyridine-3-carboxamide]",6.90,7.24,< 5.00
"O=C(Nc1ccccc1)c1cnn2ccc(N3C[C@@H](F)C[C@@H]3c3cccc(F)c3)cc12 [Example X-22, 5-[(2R,4S)-4-fluoro-2-(3-fluorophenyl)pyrrolidin-1-yl]-N-phenylpyrazolo[1,5-a]pyridine-3-carboxamide]",7.96,7.77,< 5.00
"CCOC(=O)c1cnn2ccc(N3C[C@@H](C(N)=O)C[C@@H]3c3cccc(F)c3)cc12 [Example X-20, ethyl 5-((2R,4S)-4-carbamoyl-2-(3-fluorophenyl)pyrrolidin-1-yl)pyrazolo[1,5-a]pyridine-3-carboxylate]",8.70,8.70,< 5.00
"CCOC(=O)c1cnn2ccc(N3C[C@@H](F)C[C@@H]3c3cc(F)cc(C#N)c3)cc12 [Example X-7, ethyl 5-((2R,4S)-2-(3-cyano-5-fluorophenyl)-4-fluoropyrrolidin-1-yl)pyrazolo[1,5-a]pyridine-3-carboxylate]",9.00,8.70,5.35
"CCOC(=O)c1cnn2ccc(N3CC(F)(F)C[C@@H]3c3cc(F)cc(C#N)c3)cc12 [Example X-8, (R)-ethyl 5-(2-(3-cyano-5-fluorophenyl)-4,4-difluoropyrrolidin-1-yl)pyrazolo[1,5-a]pyridine-3-carboxylate]",7.77,7.72,< 5.00
"NC(=O)c1cnn2ccc(N3CCCCC3c3cccc(F)c3)cc12 (centres unmarked) [Example X-12, 5-[2-(3-fluorophenyl)piperidin-1-yl]pyrazolo[1,5-a]pyridine-3-carboxamide]",6.65,7.01,< 5.00
"CN(C)C(=O)c1cnn2ccc(N3C[C@@H](F)C[C@@H]3c3cccc(F)c3)cc12 [Example X-15, 5-[(2R,4S)-4-fluoro-2-(3-fluorophenyl)pyrrolidin-1-yl]-N,N-dimethylpyrazolo[1,5-a]pyridine-3-carboxamide]",7.30,7.37,< 5.00
"NC(=O)c1cnn2ccc(N3C[C@H](O)C[C@@H]3c3cccc(F)c3)cc12 [Example X-24, 5-[(2R,4R)-2-(3-fluorophenyl)-4-hydroxypyrrolidin-1-yl]pyrazolo[1,5-a]pyridine-3-carboxamide]",6.40,6.92,< 5.00

# Now from value to compound, other results behind:
pIC50 [2],pIC50 [3],SMILES,pIC50 [1]
6.83,6.96,"O=C(O)c1cnn2ccc(N3C[C@@H](F)C[C@@H]3c3cccc(F)c3)cc12 [Example X-3, 5-((2R,4S)-4-fluoro-2-(3-fluorophenyl)pyrrolidin-1-yl)pyrazolo[1,5-a]pyridine-3-carboxylic acid]",< 5.00
8.05,7.85,"O=C(NCCO)c1cnn2ccc(N3C[C@@H](F)C[C@@H]3c3cccc(F)c3)cc12 [Example X-17, 5-[(2R,4S)-4-fluoro-2-(3-fluorophenyl)pyrrolidin-1-yl]-N-(2-hydroxyethyl)pyrazolo[1,5-a]pyridine-3-carboxamide]",< 5.00
8.22,8.15,"NC(=O)c1cnn2ccc(N3C[C@@H](F)C[C@@H]3c3cccc(F)c3)cc12 [Example X-5, 5-((2R,4S)-4-fluoro-2-(3-fluorophenyl)pyrrolidin-1-yl)pyrazolo[1,5-a]pyridine-3-carboxamide]",< 5.00
6.35,6.63,"NC(=O)c1cnn2ccc(N3C[C@@H](C(N)=O)C[C@@H]3c3cccc(F)c3)cc12 [Example X-26, 5-((2R,4S)-4-carbamoyl-2-(3-fluorophenyl)pyrrolidin-1-yl)pyrazolo[1,5-a]pyridine-3-carboxamide]",< 5.00
8.22,8.10,"CCNC(=O)c1cnn2ccc(N3C[C@@H](F)C[C@@H]3c3cccc(F)c3)cc12 [Example X-14, N-ethyl-5-[(2R,4S)-4-fluoro-2-(3-fluorophenyl)pyrrolidin-1-yl]pyrazolo[1,5-a]pyridine-3-carboxamide]",< 5.00
5.67,5.96,Cc1ccc(C)c(C2CCCN2c2ccn3ncc(C(N)=O)c3c2)c1 (centres unmarked) [Example X-28],< 5.00
7.62,7.80,"NC(=O)c1cnn2ccc(N3CC(F)(F)C[C@@H]3c3cccc(F)c3)cc12 [Example X-6, (R)-5-(4,4-difluoro-2-(3-fluorophenyl)pyrrolidin-1-yl)pyrazolo[1,5-a]pyridine-3-carboxamide]",< 5.00
